The values below come from PMC6030159 (Scientific Reports, 2018).

In one experiment the target is MYC. Also on record: method as in PMID 24859015. The conditions noted are these: read-out: KD for MYC by SPR; cited from earlier work. (In SPR one partner is held on a chip, and binding of the other changes the refractive index at the surface.)
Experiment [1] relates to tumor cell growth in vivo. The conditions noted are these: cited from earlier work.
Experiment [2] has as its system MYC-family protein levels. Also on record: method as in PMID 28976731, PMID 24859015, PMID 23733953. The conditions noted are these: cited from earlier work.
Experiment [3] deals with MYCN-amplified neuroblastoma cells (IMR-32, Kelly, SK-N-DZ). Description: Resazurin growth assay, MYCN-amplified neuroblastoma cell lines. The experiment is classed as cell-based, human. The note with it: MYCMI-6 6.25 μM, MYCMI-11 and MYCMI-14 25 μM, 10058-F4 64 μM, 48 hours. From the text:
HEK293A, MCF7, MDA-MB231, SK-N-F1, SK-N-RA, SK-N-AS, COS-7, HeLa, BJ cells, and Rat1 fibroblasts TGR-1 (wt), HO15.19 (MYC knockout) and HOmyc3 (MYC reconstituted HO15.19) were maintained in DMEM. The neuroblastoma cell lines Kelly, IMR-32 and SK-N-DZ, and the Burkitt’s lymphoma cell lines Mutu, Daudi and ST486 were kept in RPMI. SK-N-BE(2) cells were maintained in a 1:1 mixture of EMEM and F12 media, supplemented with 1% non-essential amino acid solution (NEAA) and 0.5% Glutamine. U2OS-MYC-ER cell lines were cultured in phenol-red free DMEM and treated with 100 nM 4-hydroxytamoxifen (HOT) (Sigma-Aldrich) to activate MYC-ER. IMR-90 was maintained in MEM. All media were supplemented with 10% FBS and 1% penicillin and streptomycin and kept at 37 °C and 5% CO2. All cell lines were mycoplasma free. Cell proliferation assays were performed as described in Supplementary Information. […]
Cell proliferation assays. Cell growth and viability was estimated in triplicates with WST-1
(Roche) or Resazurin sodium salt (Sigma-Aldrich) assays in medium at 37°C and 5% CO 2 for
2 hours after which absorbance or fluorescence, respectively, was measured with an Omega
Fluostar (BMG Labtech) in a 96 well plate format. […]

The next experiment has as its target T1, MYCbHLHZip:MAXbHLHZip (Homo sapiens, UniProt P01106).
T1 construct: 6xHis (N); made in house; host or cells: E. coli BL21 (DE3), pET28a
Description: SPR MYC:MAX heterodimer formation assay. The conditions noted are these: KJ-Pyr-9 up to 10 μM. It counts as binding. As for the experimental part:
The SPR method is a highly sensitive assay to determine the affinity between protein and ligand and to measure the kinetics of the interaction. In the SPR MYC:MAX interaction assay, MAXbHLHZip was covalently attached onto a sensor chip and MYCbHLHZip pre-mixed with compound was injected over the surface and thereafter allowed to dissociate.
The SPR experiments were performed at 25 °C using a Biacore T200 (GE Healthcare) instrument kindly provided by SciLifeLab Solna. An amino coupling procedure was used to immobilize protein on a CM5 sensor chip (GE Healthcare). Sensorgrams were generated by subtraction of the reference (blank immobilized) surface. All details will be described in Castell et al. (manuscript in preparation). In general, for the MYC:MAX interaction assay, 200–500 RU of MAXbHLHZip was immobilized and 100 nM MYCbHLHZip pre-incubated with compound in PBS supplemented with 0.05% Tween-20 and 1% DMSO was injected with a flow rate of 30 µl/min and allowed to dissociate. MAX was regenerated by injection of PBS buffer supplemented with Urea.

In the next experiment the test system is MAX. Also on record: method as in PMID 25114221. The conditions noted are these: cited from earlier work.
The test system of a further experiment is MAX:MAX:DNA. Also on record: method as in PMID 28976731, PMID 25114221. The note with it: fluorescence polarization; read-out: IC50, MAX:MAX:DNA interaction; cited from earlier work. (In general: Fluorescence polarisation rises when a labelled molecule tumbles more slowly, as on binding a larger partner.)
The next experiment addresses T2, MYC bHLHZip (Homo sapiens, UniProt P01106).
T2 construct: 6xHis (N); made in house; host or cells: E. coli BL21 (DE3), pET28a; purified in denaturing conditions
Description: SPR direct binding to immobilized MYC. The note with it: up to 8 μM. As for the experimental part:
Further, MYCMI-6 binding to MAX, MXD1 (MAD1) (Figs 4C and S5C and D), p53 (Fig. 4D), BSA (Suppl. Fig. S5E) and YFP (data not shown) were negligible. Binding to BCL-XL was only 10% of the theoretical maximum at 2 μM MYCMI-6 (Suppl. Fig. S5F).
The MYC SPR assay was carried out as described above with MYCbHLHZip immobilized to a level of 800–1000 RU. For kinetic binding experiments, a Langmuir 1:1 binding event was applied using the Biacore T200 Evaluation Software 2.0 (GE Healthcare) to determine association (ka) and dissociation (kd) constants of the compound and to calculate affinity (KD) by the formula; KD = kd/ka. Binding responses from equilibrium binding experiments were plotted against compound concentration and KD values were determined at 50% of the theoretical Rmax with the formula Rmax = (MW analyte/MW ligand) × immobilized ligand level on the chip (RU) × stoichiometry (1:1). Same coupling method described above was used to immobilize the control proteins. MAX was immobilized to approximately 2000 RU, MAD to 600 RU, BSA to 1000 RU, p53 to 3000 RU and BCL-XL, to 500 RU.

The next experiment concerns recombinant MYC:MAX:DNA. Also on record: method as in PMID 28976731, PMID 25114221. The note with it: fluorescence polarization; read-out: IC50, MYC:MAX:DNA interaction; cited from earlier work.
A further experiment has as its system T3, MYC:MAX.
T3 construct: fused to full length MYC (MYC-GLuc-C) and MAX (MAX-GLuc-N), respectively; expressed in transfected cells; host or cells: HEK293
Description: Gaussia luciferase complementation (GLuc) MYC:MAX. It counts as cell-based, human. The conditions noted are these: 25 μM, 17 hours, HEK293 cells. As to the method: The protein fragment complementation assay using the Gaussia luciferase has been described. 0.2–0.4 μg of each GLuc-construct (see Supplementary Information) together with 0.05–0.2 μg pCMV-Luc (Firefly luciferase) were transiently transfected into HEK293 or COS-7 cells in 6-well plates. 24 hours later cells were treated with compound (10–25 μM) or DMSO. After another 17 hours, the cells were harvested and lyzed in passive lysis buffer (Promega) supplemented with complete protease inhibitor (Roche). After 60 min incubation at room temperature 20 μM D-luciferin was added (substrate of Firefly luciferase) and luminescence was measured in a Lumat LB9501 (Berthold) or OmegaFluostar (BMG Labtech) luminometer. Directly after, Gaussia luciferase substrate Coelenterazine (Promega) was added to a final concentration of 20 μM in a mixture with “Stop n’ Glow” (Promega) and the luciferase activity was measured. The ratio between Gaussia and Firefly luciferase values were calculated and normalized to DMSO-treated control cells.

In another experiment the test system is endogenous MYC protein. Description: Western blot of endogenous MYC in HeLa cells. It counts as cell-based. The note with it: 10 μM, 24 hours. As for the experimental part: These assays were performed essentially as described in[67],[68]. For further information on immunohistochemistry, and on primers and antibodies, see Supplementary Information.
For orientation: Immunoblotting shows a protein as a band on a membrane.

As a reminder, the pKd is −log10 of the Kd, conventionally taken in molar units. One may read the pIC50 as the negative decadic logarithm of the IC50, by convention in mol/L.

pIC50, pKd: −log10 of the molar value. Entries after “also recorded” stand apart in the source; their conditions may differ.

T1 sequence (P01106 367-447 limits assumed): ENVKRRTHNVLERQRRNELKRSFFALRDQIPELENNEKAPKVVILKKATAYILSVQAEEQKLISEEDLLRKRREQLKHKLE
T2 sequence (P01106 367-447 limits assumed): as above

`CCc1ccc(/C=C2/SC(=S)NC2=O)cc1` [10058-F4]: the pKd on MYC is approximately 4.40. In addition, the “tumor cell growth in vivo, mouse tumor models” value in experiment [1] is given as “Inhibition of tumor cell growth in vivo”. For the same compound, the “effect on MYC-family protein levels” value in [2] was “down-regulate”. The “growth of MYCN-amplified versus MYCN-non-amplified neuroblastoma cell lines” value in experiment [3] was “reduced growth of the MYCN-amplified cell lines significantly stronger than the MYCN-non-amplified cell lines”.

Consider `O=[N+]([O-])c1ccc(Nc2ccccc2-c2ccccc2)c2nonc12` [10074-G5], for which the negative-log Kd (pKd) at MYC is approximately 4.49. The “effect on MYC-family protein levels” value in [2] is “down-regulate”.

On to `NC(=O)c1ccc(-c2cc(-c3ccc([N+](=O)[O-])cc3)nc(-c3ccco3)c2)cc1` [KJ-Pyr-9], for which the “effect on MYC:MAX formation (SPR), in words” value on MYCbHLHZip:MAXbHLHZip was “no effect; also recorded: not affect the MYC:MAX interaction”. Besides, in the experiment on MAX, the “binding to MAX, BSI” value was “not MAX”. In experiment [1], the “tumor cell growth in vivo, mouse tumor models” value is listed as “Inhibition of tumor cell growth in vivo”. Also, the pIC50 was approximately 4.52 in the experiment on MAX:MAX:DNA and approximately 5.00 with recombinant MYC:MAX:DNA. Further, the “binding to immobilized MYC (SPR), in words” value at MYC bHLHZip was “not detect any binding”.

Take `CCN(CC)CC[n+]1ccc2c(C)c3[nH]c4ccccc4c3c(C)c2c1` [MYCMI-7]: in the experiment on MYC:MAX, the “MYC:MAX GLuc activity” value is “most potent”. In the experiment with endogenous MYC protein, the “effect on endogenous MYC protein levels (western blot)” value was “reduced MYC protein expression”.
